Measured values published in patent publication US20020071842A1, “Soluble CD1 compositions and uses thereof” (priority 2000, published 2002).

Legend:
[1] = test system: human CD1d-restricted T cell clones; assay: Flow cytometric staining with lipid treated multimerized CD1d-Fc aggregates; type: cell-based; conditions: flow cytometry, human CD1d-Fc/Alexa 488 protein A aggregate, 40:1 lipid to fusion protein, compared with DMSO alone
Method: (§1) To facilitate binding to CD1 specific T cells for detection by flow cytometry, a highly multimerized form of the CD1d fusion protein was formed using fluorescently labeled protein A molecules. Protein A molecules spontaneously associate in solution at neutral pH with immunoglobulin Fc regions, forming complexes containing four Fc molecules and two protein A molecules (4+2 complexes, reference 2). The human CD1d-Fc fusion protein was incubated with Alexa 488 dye labeled protein A, and the 4+2 complexes purified by size exclusion chromatography on a Pharmacia Superose 6 column using PBS pH 7.2 as a running buffer. The purified 4+2 aggregates were concentrated to 100 μg/ml with ovalbumin as a carrier protein. The CD1d-Fc aggregate was then pre-incubated for 24 to 48 hours at 37° C. with antigenic glycolipids dissolved in DMSO at a 40:1 molar ratio of lipid to fusion protein, or with an equivalent volume of DMSO alone as a negative control. The T cell staining was performed at room temperature or 4° C. for 20 min, at a concentration of 40 μg/ml of the lipid or control treated CD1d-Fc aggregate.
To facilitate binding to CD1 specific T cells for detection by flow cytometry, a highly multimerized form of the CD1d fusion protein is formed using fluorescently labeled protein A molecules. Protein A molecules spontaneously associate in solution at neutral pH with immunoglobulin Fc regions, forming complexes containing four Fc molecules and two protein A molecules (4+2 complexes, Langone, J.J. et al, Molec. and Cell. Biochem, 65(2):159-70 (1985)). The human CD1d-Fc fusion protein was incubated with Alexa 488-dye labeled protein A, and the 4+2 complexes purified by size exclusion chromatography on a Phannacia Superose 6 column using PBS pH 7.2 as a running buffer. The purified 4+2 aggregates are concentrated to 100 μg/ml with ovalbumin as a carrier protein. The CD1d-Fc aggregate is then pre-incubated for 24 to 48 hours at 37° C. with antigenic glycolipids dissolved in DMSO at a 40:1 molar ratio of lipid to fusion protein, or with an equivalent volume of DMSO alone as a negative control. The T cell staining is performed at room temperature or 4° C. for 20 min, at a concentration of 40 μg/ml of the lipid or control treated CD1d-Fc aggregate.
Flow cytometric analysis of a CD1d-restricted T cell clone stained with the multimerized CD1d-Fc fusion protein (abbreviated as “hd(8)-fl”) was performed as follows. Staining with CD1d-Fc treated with lipid antigens dissolved in DMSO was compared with CD1d-Fc treated with DMSO alone as a negative control. The specific lipid antigen used were: aGalCer is α-galactosyl ceramide (KRN7000); aGlcCer is α-glucosyl ceramide; aManCer is α-mannosyl ceramide; bGalCer is β-galactosyl ceramide; Cer is ceramide (acylphytosphingolipid).
Flow cytometric analysis of a series of human T cell clones stained with the multimerized CD1d-Fc fusion protein, treated with α-GalCer or DMSO alone also was performed, including staining of two different CD1d-restricted (“NKT”) T cell clones DN2.B9 and DN1.10B3. Four other T cell clones that are not CD1d-restricted also were stained.

[2] = test system: T cells in PBMCs purified from a healthy donor; assay: Three color flow cytometric staining of PBMCs with lipid loaded CD1d-Fc aggregates; type: cell-based, human; conditions: CD1d-Fc aggregate treated with antigen, anti-CD3 and anti-CD161 co-staining
Method: as §1
To facilitate binding to CD1 specific T cells for detection by flow cytometry, a highly multimerized form of the CD1d fusion protein is formed using fluorescently labeled protein A molecules. […]

Compound | staining of CD1d-restricted T cell clones by lipid treated CD1d-Fc aggregate ([1]; listed as aGalCer) | T cells stained relative to CD1d-Fc treated with DMSO alone [2] | T cells stained relative to the UPC10 negative control [2] | staining of CD1d-restricted T cell clones by lipid treated CD1d-Fc aggregate [1]
CCCCCCCCCCCCCCCCCCCCCCCCCC(=O)N[C@@H](CO[C@H]1O[C@H](CO)[C@H](O)[C@H](O)[C@H]1O)[C@H](O)[C@H](O)CCCCCCCCCCCCCC [α-GalCer, α-galactosylceramide] | positive staining | about 6 fold | about 10 fold | 
unglycosylated ceramide |  |  |  | did not stain above background levels
β-galactosylceramide [β-GalCer] |  |  |  | did not stain above background levels
